From patent US20240199624A1, “COMPOUNDS, COMPOSITIONS, AND METHODS” (CHDI Foundation, Inc., priority 2022, published 2024)

How the values were obtained:
MSH2 (human MutSbeta) = molecular target: T1, MSH2 (human MutSbeta) (Homo sapiens, UniProt P43246); assay: ATP binding and cross-linking assay (MSH2 subunit); conditions: [32P]-ATP UV cross-linking to MSH2 subunit of MutSbeta; read-out: cross-link assay IC50 MSH2
T1 construct: Msh2(1-934), Gene ID NP_000242.1
Experimental: (§1) ATP binding and cross-linking assay: Enzyme human MutSbeta (Msh2(1-934), Gene ID NP_000242.1, Msh3(1-1137), Gene ID J04810.1) was adjusted to 0.2 μM and, in experiments in the presence of 22 bp biotin-labeled DNA containing a GT-mismatch (purchased from Curia Global, TOP 5′-[…]-3′; BOT 3′-AGTAGCTAGGC - - - CGAAGTCTACC-5′-Biotin), pre-incubated with DNA at equimolar concentration for indicated time and temperature. All reagents were kept on ice. Enzyme was then incubated on ice for the indicated time with 5 nM γ-[^32P]-ATP (Hartmann Analytic, FP-301) or α-[^32P]-ATP (Perkin Elmer, NEG003H250UCSBF4 or Hartmann Analytic, FP-207) and addition of cold ATP (10 μM) or ADP (0.3 μM). The total volume was 20 μL and the samples were handled in Eppendorf reaction tubes. The assay buffer was 25 mM HEPES pH=7.5, 150 mM KCl, 5 mM MgCl2, 5 mM GSH, 0.01% Tween-20. All steps with radioactive ATP were conducted behind appropriate shielding. The samples were then placed on dry ice until they were frozen solid. […] The screen was analyzed in the imager (GE Healthcare, Fluorescent Image Analyzer, Typhoon FLA 7000, #5622514B), and the image was analyzed with imageJ software.

MSH3 (human MutSbeta) = molecular target: T2, MSH3 (human MutSbeta) (Homo sapiens, UniProt P20585); assay: ATP binding and cross-linking assay (MSH3 subunit); conditions: [32P]-ATP UV cross-linking to MSH3 subunit of MutSbeta; read-out: cross-link assay IC50 MSH3
T2 construct: Msh3(1-1137), Gene ID J04810.1
T2 sequence (P20585 whole entry): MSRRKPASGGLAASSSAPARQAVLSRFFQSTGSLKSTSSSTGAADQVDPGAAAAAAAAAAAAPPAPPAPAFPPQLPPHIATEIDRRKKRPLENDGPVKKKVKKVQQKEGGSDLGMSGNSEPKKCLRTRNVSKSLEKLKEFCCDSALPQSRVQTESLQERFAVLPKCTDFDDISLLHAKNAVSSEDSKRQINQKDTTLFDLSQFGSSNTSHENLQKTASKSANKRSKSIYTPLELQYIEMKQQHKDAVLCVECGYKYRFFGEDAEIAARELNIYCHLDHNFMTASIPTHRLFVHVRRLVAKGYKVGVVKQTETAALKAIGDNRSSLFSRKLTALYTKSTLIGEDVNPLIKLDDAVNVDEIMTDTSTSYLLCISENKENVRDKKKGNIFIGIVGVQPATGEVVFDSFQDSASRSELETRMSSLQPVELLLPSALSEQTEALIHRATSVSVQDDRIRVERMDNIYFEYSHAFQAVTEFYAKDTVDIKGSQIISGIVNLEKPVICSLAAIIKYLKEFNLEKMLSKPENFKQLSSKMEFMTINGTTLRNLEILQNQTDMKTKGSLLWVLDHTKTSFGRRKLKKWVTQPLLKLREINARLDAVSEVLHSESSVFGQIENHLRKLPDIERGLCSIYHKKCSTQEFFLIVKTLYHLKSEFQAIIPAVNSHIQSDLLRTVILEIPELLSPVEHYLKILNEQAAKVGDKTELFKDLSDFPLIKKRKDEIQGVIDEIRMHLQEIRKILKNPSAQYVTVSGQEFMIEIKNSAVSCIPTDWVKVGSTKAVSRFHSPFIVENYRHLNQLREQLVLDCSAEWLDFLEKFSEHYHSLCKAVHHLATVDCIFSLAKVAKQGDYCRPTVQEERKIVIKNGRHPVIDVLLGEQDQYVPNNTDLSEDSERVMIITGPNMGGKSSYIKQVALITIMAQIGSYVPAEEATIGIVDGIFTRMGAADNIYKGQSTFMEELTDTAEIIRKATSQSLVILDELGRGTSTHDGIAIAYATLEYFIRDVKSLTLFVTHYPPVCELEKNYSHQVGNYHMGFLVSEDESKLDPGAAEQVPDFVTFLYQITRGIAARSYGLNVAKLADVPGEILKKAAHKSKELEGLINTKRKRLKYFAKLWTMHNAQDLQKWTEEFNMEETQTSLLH
T2 sequence (P43246 whole entry partner): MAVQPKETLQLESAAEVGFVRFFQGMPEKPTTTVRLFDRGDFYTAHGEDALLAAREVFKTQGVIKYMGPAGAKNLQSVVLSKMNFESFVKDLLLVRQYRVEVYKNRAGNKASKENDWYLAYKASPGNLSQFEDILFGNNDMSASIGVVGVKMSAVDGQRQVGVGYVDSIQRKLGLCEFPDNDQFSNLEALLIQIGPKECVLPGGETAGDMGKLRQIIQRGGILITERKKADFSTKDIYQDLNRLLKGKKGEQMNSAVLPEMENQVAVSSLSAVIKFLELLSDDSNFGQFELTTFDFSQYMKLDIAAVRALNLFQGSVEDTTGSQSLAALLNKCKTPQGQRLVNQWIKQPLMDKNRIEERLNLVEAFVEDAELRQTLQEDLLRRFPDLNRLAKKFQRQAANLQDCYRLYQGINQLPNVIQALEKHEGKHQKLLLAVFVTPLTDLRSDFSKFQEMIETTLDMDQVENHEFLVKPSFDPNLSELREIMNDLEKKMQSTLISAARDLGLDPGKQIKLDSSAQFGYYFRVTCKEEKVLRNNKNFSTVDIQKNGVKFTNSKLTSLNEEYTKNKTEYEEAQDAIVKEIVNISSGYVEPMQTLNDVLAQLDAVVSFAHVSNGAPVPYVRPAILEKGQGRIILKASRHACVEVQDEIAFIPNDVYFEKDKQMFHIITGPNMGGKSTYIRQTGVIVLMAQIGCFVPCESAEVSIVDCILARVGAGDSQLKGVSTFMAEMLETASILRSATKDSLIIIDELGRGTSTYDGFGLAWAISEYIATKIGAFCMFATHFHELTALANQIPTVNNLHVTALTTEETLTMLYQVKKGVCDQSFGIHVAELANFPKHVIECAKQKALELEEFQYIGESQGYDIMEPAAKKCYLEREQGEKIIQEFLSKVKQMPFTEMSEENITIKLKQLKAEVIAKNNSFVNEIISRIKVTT
Experimental: as §1

human MutSbeta = molecular target: T3, human MutSbeta (Homo sapiens, UniProt P20585+P43246); assay: P33 SPA 1.1; assay type: biochemical; conditions: Table 5A; enzyme first added to compounds, then ATP
T3 construct: Msh2(1-934), Gene ID NP_000242.1; Msh3(1-1137), Gene ID J04810.1
T3 sequence (P43246 whole entry): as the sequence (P43246 whole entry partner) above
T3 sequence (P20585 whole entry): as the sequence (P20585 whole entry) above
Experimental: P33 SPA: Enzyme human MutSbeta (Msh2(1-934), Gene ID NP_000242.1, Msh3(1-1137), Gene ID J04810.1) and 22 bp biotin-labeled DNA containing a GT-mismatch (purchased from Curia Global, TOP 5′-[…]-3′; BOT 3′-AGTAGCTAGGC - - - CGAAGTCTACC-5′-Biotin) were pre-incubated at equimolar concentration for 15 min at room temperature (“RT”) in assay buffer (25 mM HEPES pH=7.5, 150 mM KCl, 2 mM MgCl2, 2 mM GSH, 0.01% Tween-20). ATP (10 μL, 2× final concentration of γ-[^33P]-ATP (final 0.1 nM; Hartmann Analytic, FF-301) and cold ATP (final 2 μM)) was added to compounds (400 nL spotted as concentration response in 100% DMSO into wells of an OptiPlate) and pre-incubated for 30 min at RT. Then, enzyme with DNA was added (10 μL, 2× final concentration of 7 nM) and incubated for 60 min at 37° C. in a total volume of 20 μL per well. Decay of [^33P] with a half-life of 25.4 days was corrected by increasing the concentration of the labelled nucleotide with the appropriate factor; all steps with radioactive ATP were conducted behind appropriate shielding. Then, 20 μL of a 1:2 mix of ammonium molybdate (20 mg/mL Ammonium molybdate in 2.4 M HCl) and SPA beads (ProteinA SPA beads from Perkin Elmer Cat #RPNQ0019 at 7.5 mg/mL+1% azide) was added per well and incubated at RT for 2 min. Then, 40 μL of 7 M CsCl and 0.1 M citrate was added per well and incubated for 20 h at RT before measuring on the MicroBeta (top read mode, 1 min per well). For full plate processing, all reagents were transferred with a pipettor (Selma, CyBio) apart from the final reagent (CsCl+citrate) which was added with a dispenser (MultiFlo, BioTek). Data analysis during assay development was done with Prism GraphPad.
P33 SPA 11: For the SPA 1.1 assay, the addition of reagents was reversed, i.e. enzyme was first added to the compounds and pre-incubated followed by ATP addition; thus, the assay was aligned with ADP Glo 1.1 reagent addition order. The assay was repeated under similar conditions, and the results are shown below in Table 5B. It is contemplated the solubility of the compounds and/or varying test occasions may account for variability of assay results.

T1 sequence (P43246 whole entry): as the sequence (P43246 whole entry partner) above
T1 sequence (P20585 whole entry partner): as the sequence (P20585 whole entry) above

| SMILES | IC50 (MSH2 (human MutSbeta)) | IC50 (MSH3 (human MutSbeta)) | IC50 (human MutSbeta) |
| --- | --- | --- | --- |
| Cc1ccc(Nc2nc(N3CCN(C)CC3)nc3nccnc23)cc1C [Compound 2, N-(3,4-dimethylphenyl)-2-(4-methylpiperazin-1-yl)pteridin-4-amine] | 120 µM | 5 µM | 55.9 µM |
| CCN1CCN(c2nc(Nc3ccc(Cl)cc3)c3nccnc3n2)CC1 [Compound 4, N-(4-Chlorophenyl)-2-(4-ethylpiperazin-1-yl)pteridin-4-amine] | 215 µM | 9 µM | 40.5 µM |
